Measured values taken from US20230322781A1 (Northwestern University, priority 2020, published 2023).
Entries after “also recorded” stand apart in the source; their conditions may differ. Where a name gives a salt, the structure may show the parent alone.

What was measured:
[1] = Isothermal titration calorimetry (ITC) with CB[8]; type: binding; conditions: 1000 μM in syringe into CB[8] 50 μM; aqueous NaCl (1 mM), 298 K
Description: All microcalorimetric titrations were performed in a thermostated TA Nano Isothermal Titration calorimeter at atmospheric pressure and 298 K. The samples were dissolved in an aqueous NaCl (1.0 mM) solution, in order to improve the solubility of CB[8], and the concentrations of sample were calibrated by UV-Vis absorption spectroscopy after filtered by a 0.45-filter. A solution of one reactant in a syringe was sequentially injected with stirring at 150 rpm into a solution of the other reactant in the sample cell with a constant volume of 185 μL. A representative titration curve is shown in FIG. 24, each titration of reactant into the sample cell gave an apparent reaction heat caused by the formation of the inclusion complex. The reaction heat decreases gradually until a balance was reached, whereupon only the dilution heat was measured. The net reaction heat was obtained by subtracting the dilution heat from the apparent reaction heat. The resulting data were analyzed with NanoAnalyze software using a 1:1 binding model to give the complex stability constant (Ka), standard molar reaction enthalpy (ΔH), and standard deviations. Generally, the first point of the titration curve was disregarded, as there is some liquid mixing near the tip of the injection needle before ITC run. […]
The value for K1 can be determined to be 5.8×10^7 M^−1 by analysis of the UV-Vis titration data. […]

[2] = 1H NMR of equimolar mixture with CB[8]; type: binding; conditions: D2O, 298 K
Excerpt: The peaks in the spectrum were assigned on the basis of in-depth analyses of their 2D ^1H-^1H COSY and ROESY spectra. The chemical shifts of H-7, residing on the central phenylene groups, as well as H-5 and H-6, attached to the C═C double bonds, show (FIG. 2d) large upfield shifts (Δδ=−0.64, −0.43 and −1.12 for H-5, H-6, and H-7, respectively). While the protons on CB[8] display (FIG. 7) small upfield shifts (Δδ=−0.09, −0.11 and −0.13 for H-a, H-b, and H-c, respectively). […] Taken together, it can be concluded that, although OPVEBox^4+ and CBPQT^4+ have the same p-xylylene linkers, only OPVEBox^4+ can form ring-in-ring(s) complexes with CB[8] in aqueous solutions. […]
All solvents and reagents were obtained commercially and used without further purification unless noted otherwise. […] UV-Vis Absorption spectra were recorded in a conventional rectangular quartz cell (10×10×45 mm) on a UV-3600 Shimadzu spectrophotometer. Fluorescence spectra were measured in a rectangular quartz cell (10×10×45 mm) on a HORIBA FluoroMax-4 spectrometer, which was equipped with an integrating sphere for absolute fluorescence quantum yields determination and time-correlated single-photon counting (TCSPC) module for emission decays. […] Electrospray ionization-mass spectra (ESI-MS) were measured on Waters Synapt G2 mass spectrometer. […]

[3] = Water solubility (qualitative statements); type: physicochemical; conditions: H2O
[4] = literature value (ref 34); cited from earlier work

For `c1cc2ccc1C[n+]1ccc(cc1)-c1cc[n+](cc1)Cc1ccc(cc1)C[n+]1ccc(cc1)-c1cc[n+](cc1)C2` [CBPQT^4+, cyclobis(paraquat-p-phenylene)], the “enthalpy change upon addition into CB[8]” value [1] was “no obvious enthalpy change” and the “binding with CB[8] by 1H NMR” value [2] was “may bind very weakly to the p-xylylene linkers”.
For `O=C1N2CN3C(=O)N4CN5C(=O)N6CN7C(=O)N8CN9C(=O)N%10CN%11C(=O)N%12CN%13C(=O)N%14CN%15C(=O)N%16CN1C1C2N2CN%17C(=O)N(CN%18C(=O)N(CN%19C(=O)N(CN%20C(=O)N(CN%21C(=O)N(CN%22C(=O)N(CN%23C(=O)N(CN1C2=O)C%16C%15%23)C%14C%13%22)C%12C%11%21)C%10C9%20)C8C7%19)C6C5%18)C4C3%17` (stereo not shown) [CB[8], cucurbit[8]uril], the water solubility [3] was “poor water solubility; also recorded: low solubility”.
In the case of `CC12CC3CC(C)(C1)CC(N)(C3)C2` [memantine hydrochloride], the “binding affinity Ka for CB[8]” value [4] is listed as 8.3e+12 M⁻¹.
